Source: ChEMBL document CHEMBL1201862, “PubChem BioAssay data set” (2004)
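Results reflect a 48-hour exposure of cells in 96-well plates to compound at five concentrations. Here, GI50 denotes the concentration required for 50% inhibition of growth.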 Activity calls are given as the source filed them. Rule as the data show it: active = GI50 up to about 1.1 µM and inactive = higher.

Tests used:
Assay in all cases: NCI-60 cell line screen, 48 h
Malme-3M = tested on: Malme-3M
HOP-92 = tested on: HOP-92
MOLT-4 = tested on: MOLT-4
A549 = tested on: A549
NCI-H23 = tested on: NCI-H23
SK-MEL-28 = tested on: SK-MEL-28
UACC-257 = tested on: UACC-257
OVCAR-8 = tested on: OVCAR-8
IGROV-1 = tested on: IGROV-1
LOX IMVI = tested on: LOX IMVI
TK-10 = tested on: TK-10
UACC-62 = tested on: UACC-62
SW-620 = tested on: SW-620
SF-539 = tested on: SF-539
ACHN = tested on: ACHN
SF-295 = tested on: SF-295
NCI-H460 = tested on: NCI-H460
COLO 205 = tested on: COLO 205
NCI/ADR-RES = tested on: NCI/ADR-RES

SMILES | GI50 (Malme-3M) | GI50 (HOP-92) | GI50 (MOLT-4) | GI50 (A549) | GI50 (NCI-H23) | GI50 (SK-MEL-28) | GI50 (UACC-257) | GI50 (OVCAR-8) | GI50 (IGROV-1) | GI50 (LOX IMVI) | GI50 (TK-10) | GI50 (UACC-62) | GI50 (SW-620) | GI50 (SF-539) | GI50 (ACHN) | GI50 (SF-295) | GI50 (NCI-H460) | GI50 (COLO 205) | GI50 (NCI/ADR-RES)
CC1(Cl)CC2OC3(Br)C=CC(C)(O)C2(CC1Br)C3(C)C (stereo not given) | > 100 µM (inactive) | 50.9 µM (inactive) | > 100 µM (inactive) | > 100 µM (inactive) | > 100 µM (inactive) | > 100 µM (inactive) | 97.5 µM (inactive) | > 100 µM (inactive) | > 100 µM (inactive) | > 100 µM (inactive) | > 100 µM (inactive) | > 100 µM (inactive) | > 100 µM (inactive) | > 100 µM (inactive) | > 100 µM (inactive) | > 100 µM (inactive) | > 100 µM (inactive) | > 100 µM (inactive) | 
COc1ccc(O)c(C(=O)CCC(=O)O)c1 | > 100 µM (inactive) | > 100 µM (inactive) | > 100 µM (inactive) | > 100 µM (inactive) | > 100 µM (inactive) | > 100 µM (inactive) | 15.6 µM (inactive) | > 100 µM (inactive) | > 100 µM (inactive) | > 100 µM (inactive) | > 100 µM (inactive) | > 100 µM (inactive) | > 100 µM (inactive) | > 100 µM (inactive) | > 100 µM (inactive) | > 100 µM (inactive) | > 100 µM (inactive) | > 100 µM (inactive) | 
COC(=O)/C=C\n1c(C)cc(=O)[nH]c1=O | > 100 µM (inactive) | > 100 µM (inactive) | > 100 µM (inactive) | > 100 µM (inactive) | > 100 µM (inactive) | > 100 µM (inactive) | > 100 µM (inactive) | > 100 µM (inactive) | > 100 µM (inactive) |  | > 100 µM (inactive) | > 100 µM (inactive) | > 100 µM (inactive) | > 100 µM (inactive) | > 100 µM (inactive) | > 100 µM (inactive) | > 100 µM (inactive) | > 100 µM (inactive) | > 100 µM (inactive)
CC1(c2ccccc2)CC12C(=O)NC(=O)NC2=O (stereo not given) | > 100 µM (inactive) | > 100 µM (inactive) | > 100 µM (inactive) | > 100 µM (inactive) | > 100 µM (inactive) | > 100 µM (inactive) | > 100 µM (inactive) | > 100 µM (inactive) | > 100 µM (inactive) | > 100 µM (inactive) | > 100 µM (inactive) | > 100 µM (inactive) | > 100 µM (inactive) | > 100 µM (inactive) | > 100 µM (inactive) | > 100 µM (inactive) | > 10 µM (inactive) | > 100 µM (inactive) | 
COc1ccc(C2=C[C@]3(O)CCCN3C[C@@H]2c2ccc(OC)c(OC)c2)cc1 | < 0.0001 µM (active) | < 0.0001 µM (active) | < 0.0001 µM (active) | < 0.0001 µM (active) | < 0.0001 µM (active) | < 0.0001 µM (active) | < 0.0001 µM (active) | < 0.0001 µM (active) | < 0.0001 µM (active) | < 0.0001 µM (active) | < 0.0001 µM (active) | < 0.0001 µM (active) | < 0.0001 µM (active) | < 0.0001 µM (active) | < 0.0001 µM (active) | < 0.0001 µM (active) | < 0.0001 µM (active) | < 0.0001 µM (active) | 
